Experiments:
[1] = test system: MBP reactive T-cell lines; assay: Reactivity of MBP-reactive T-cell lines to overlapping human MBP peptides (proliferation assay); type: cell-based; settings: for mean frequency of T-cell lines selectively reactive to the peptide, MS vs controls (FIG. 1): result in words
Description: A rapid T-cell cloning technique was used to examine whether there were immunodominant epitopes on human MBP reactive with Class II MHC phenotypes and the frequency of such reactivity. A total of 15,824 short term T-cell lines were generated from 51 human subjects by culturing peripheral blood mononuclear cells ([…]) with purified MBP (100 μg) followed 3 days later, and then every 3-4 days, by the addition of interleukin-2 (IL-2; from ABI, Columbia, Md.) and 2 units recombinant interleukin-4 (IL-4; Genzyme, Boston, Mass.). On Day 13 of culture, an aliquot from each line was tested for reactivity to MBP using the following proliferation assay: T-cell clones (1×10^5 cells/well) were plated in triplicate and cocultured with appropriate stimuli (i.e. 100 μg whole MBP or 5% IL-2) for 72 hours at 37° C., 90% humidity, 5% CO2, in 96 well flat bottomed microtiter plates (Costar). The cells were pulsed with 2 μCi [^3 H]TdR (2 Ci/mmole, New England Nuclear, Boston, Mass.) for the last 18 hours of culture. APCs were prepared by pulsing human Epstein-Barrvirus transformed human B-cells (the virus being commercially available from ATCC) or L-cells which are mouse cells transfected with human DR2 (L-cells are commercially available from ATCC under accession No. ATCC-CCL1 and can be transfected according to the method of Wilkinson, D. et al, J. Exp. Med., 1988, 167:1442-1458 using DNA encoding DR2 as per Wu, S. et al J. Immunol., 1987, 138:2953). B-cells or L-cells were used at 1×10^6 cells/well in complete media either in the presence or absence of 40 pM MBP or phospholipid protein (PLP) for 2 hours at 37° C., washing twice with 4° C. Hanks (Whittaker), followed by irradiation with 5000 rad. at 4° C. To stimulate T-cells without accessory APCs, 2 μM of MBP, PLP, or the appropriate fragment was added directly to the cells for the duration of the culture: 48 hours, followed by pulsing […] and then harvesting. Ten thousand APC's were used for 100,000 T-cell clones.
T-cell lines shown to be reactive to MBP or PLP were then tested using the same technique for reactivity to overlapping oligopeptide 20-mers encompassing the human MBP sequence as shown in Table 1 above. […]
Of a total of 302 cell lines from patients with MS that could be expanded and confirmed to react with MBP on repeated analysis, 140 (46.4%) reacted with MBP residues 84-102; and approximately 70-80% reacted with either MBP residues 84-102 or 143-168. […] The actual frequency of T-cells derived from the peripheral blood that reacted with each MBP peptide for each individual subject was calculated. […]

[2] = test system: actively induced EAE; assay: Suppression of actively induced EAE (immunization with MBP/CFA); type: in vivo, Lewis rats; settings: FIG. 7, words
[3] = test system: short term T-cell lines generated from peripheral blood mononuclear cells; assay: Frequency of MBP- and PLP-reactive short term T-cell lines (proliferation assay); type: cell-based, human; settings: mean +/-SEM
Description: A rapid T-cell cloning technique was used to examine whether there were immunodominant epitopes on human MBP reactive with Class II MHC phenotypes and the frequency of such reactivity. A total of 15,824 short term T-cell lines were generated from 51 human subjects by culturing peripheral blood mononuclear cells ([…]) with purified MBP (100 μg) followed 3 days later, and then every 3-4 days, by the addition of interleukin-2 (IL-2; from ABI, Columbia, Md.) and 2 units recombinant interleukin-4 (IL-4; Genzyme, Boston, Mass.). On Day 13 of culture, an aliquot from each line was tested for reactivity to MBP using the following proliferation assay: T-cell clones (1×10^5 cells/well) were plated in triplicate and cocultured with appropriate stimuli (i.e. 100 μg whole MBP or 5% IL-2) for 72 hours at 37° C., 90% humidity, 5% CO2, in 96 well flat bottomed microtiter plates (Costar). […]
Subjects with other central nervous system diseases had the following diagnoses: 1-3 weeks after either cerebrovascular accident (n=4), brain trauma with CNS hemorrhage (n=4), or metastatic brain tumor (n=2). […] In addition, the frequency of MBP and PLP-reactive lines was calculated separately for each subject by dividing the number of MBP-reactive lines by the total number of lines generated and the mean values +/-SEM are given. […]

FKGVDAQGTLSKIFKLGGRD [143-168, human MBP amino acid residues 143-168]
fraction of MBP reactive T-cell lines that recognized either the 84-102 or the 143-168 peptide ([1]; control groups, 100 lines): about 34% | fraction of MBP-reactive cell lines that reacted with either MBP residues 84-102 or 143-168 ([1]; patients with MS, 302 cell lines): 70-80% | mean frequency of T-cell lines selectively reactive to the peptide, MS vs controls (FIG. 1) [1]: both MS and control subjects showed high frequencies

HHPARTAHYGSLPQKSEGRT [61-82]
mean frequency of T-cell lines selectively reactive to the peptide, MS vs controls (FIG. 1) [1]: Significant but less striking increases in reactivity

guinea pig MBP peptide 131-150: Control guinea pig MBP peptide 131-150 (DYKSKGFKGAHDAQGTLSKI; UniProt P25188 131-150, looked up, fragment)
suppression of EAE via IV tolerization ([2]; administered intravenously prior to immunization): did not suppress | suppression of EAE via oral tolerization ([2]; administered orally prior to immunization): did not suppress

B1: PLP: proteolipid protein, myelin autoantigen (protein, UniProt P60201 2-277, looked up)
Myelin proteolipid protein: GLLECCARCLVGAPFASLVATGLCFFGVALFCGCGHEALTGTEKLIETYFSKNYQDYEYLINVIHAFQYVIYGTASFFFLYGALLLAEGFYTTGAVRQIFGDYKTTICGKGLSATVTGGQKGRGSRGQHQAHSLERVCHCLGKWLGHPDKFVGITYALTVVWLLVFACSAVPVYIYFNTWTTCQSIAFPSKTSASIGSLCADARMYGVLPWNAFPGKVCGSNLLSICKTAEFQMTFHLFIAAFVGAAATLVSLLTFMIAATYNFAVLKLMGRGTKF
MEAN FREQUENCY OF Ag REACTIVE LINES ([3]; MS patients (n = 23)): 3.34 ± 1.56 | MEAN FREQUENCY OF Ag REACTIVE LINES ([3]; other neurological disease (n=10)): 0.90
